Results published in patent publication US20200368260A1, “USE OF BENZOPYRAN COMPOUND IN PREPARATION OF PRODUCT FOR REGULATING LIPID METABOLISM AND COMPOSITION OF THE SAME” (priority 2019, published 2020).

Experiments:
Format in all cases: cell-based, human
[1] = test system: APG7; experiment: Q-PCR, mRNA expression in oleic acid induced HepG2 cells; details: for mRNA level of Apg7: high dose group; for mRNA expression of Apg7: low and medium doses
Description: (§1) The culture, model establishment and drug treatment manners of the cells were the same as those in 1.2.4. After the completion of the treatment, the cells were collected, total RNA was extracted, then cDNA was synthesized by reverse transcription, and finally, the change of the transcription level of autophagy-related genes of the HepG2 cell in a nonalcoholic fatty liver disease model under the actions of petunidin-3-O-β-D glucoside and malvidin-3-O-β-D glucoside was detected by the real-time fluorescent quantitative PCR method, where the following method can be adopted:
(§2) 1. After the completion of drug treatment, the cells were washed with PBS for 2 times, added with 1 mL Trizol per about 1×10^7 cells, then pipetted up and down with a 1 mL pipette gun (free of RNA enzymes) until the liquid was clear and had no cell aggregate, transferred into a […] RNA-enzyme-free EP tube, mixed well by inverting up and down for 10 times, and lysed for 5 minutes at room temperature.
(§3) 1. The first strand of cDNA was synthesized by using 800 ng of total RNA as a template and a total system of 20 μL. A nuclease-free PCR tube in the ice bath was added with the following reagents:
(§4) 5. A reverse transcription reaction was carried out on a PCR machine under the following conditions: incubation at 25° C. for 10 min, cDNA synthesis at 50° C. for 30 min, and reaction termination at 85° C. for 5 min. The resulting cDNA product was stored at −20° C.
(§5) 1. According to the gene sequence provided in the literature, the primers were synthesized by Sangon Biotech (Shanghai) Co., Ltd., and the primer sequences of β-actin, APG5L, Apg7, p62 , Bcl-1 and FASN were shown in the table below:
(§6) 2. The above reaction solution was placed into a real-time quantitative PCR instrument for amplification, and the PCR reaction conditions were as shown in the table below:
(§7) For the expression of the target gene, the difference was corrected with a reference gene β-actin by a Ct value comparison method, and the changing multiple was 2^−ΔΔCt. The calculation formula was: the changing multiple=2^−ΔΔCt, where ΔΔCt=(Ct of the target gene−Ct of the reference gene) the drug treatment group−(Ct of the target gene−Ct of the reference gene) control.

[2] = test system: Bcl-1; experiment: as above
Description: as §1, §2, §3, §4, §5, §6, §7

[3] = test system: APGSL; experiment: as above
Description: as §1, §2, §3, §4, §5, §6, §7

[4] = test system: p62; experiment: as above; details: for mRNA level of p62: high dose group; for mRNA expression of p62: low and medium doses
Description: as §1, §2, §3, §4, §5, §6, §7

[5] = test system: Fas; experiment: as above
Description: as §1, §2, §3, §4, §5, §6, §7

[6] = test system: Bcl-1; experiment: Western blotting, protein expression in oleic acid induced HepG2 cells; details: high dose group
Method: (§8) The culture, model establishment and drug treatment manners of the cells were operated according to 1.2.3. After completion, cells were collected, cytoplasmic proteins were extracted, and protein electrophoresis was conducted after quantification. Particularly the following methods were used:
(§9) When the cell confluence reached 70%, 0.5 mM oleic acid was added to treat the cells for 24 h. After completion, the cells were collected and the cytoplasmic protein was extracted, and the protein electrophoresis was conducted after quantification. The electrophoresis method was as follows:
(§10) After cell culture was completed, the culture plate was taken out, the culture medium in the well was discarded, the pellet was washed twice with PBS, placed onto an ice bath, and added with 100 μL of a protein lysis buffer (RIPA) (PMSF was added into the cell lysis buffer at 1:1000 within few minutes before the use, with a final concentration of 1 mM) per well. After the cells were lysed for about […], the cells were scraped off with a cell scraper, pipetted into a 1.5 mL centrifuge tube (which could be crushed with an ultrasonic cell disruptor for 3-5 times), then centrifuged at 12,000 rpm under 4° C. for 15-20 mM. The supernatant was taken and transferred into a new centrifuge tube for protein quantification or storage at −80° C.
(§11) Theprotein content was determined by a BCA method, and the operation method was carried out according to the instructions of the kit. After the protein concentration was measured, the protein sample was added with a 5× loading buffer and mixed uniformly at 1:4, then subjected to water bath at 100° C. for […] (entangling with a sealing film to prevent bouncing off), and stored at 4° C.
(§12) The specific operation method of protein electrophoresis was in accordance with the relevant references. Since each of the molecular weight of the target proteins was within 10-80 KDa except for FASN (the separation gel was prepared according to the following table), the separation gel concentration was selected to be 10%, and the concentration of the FASN protein separation gel was selected to be 6%.
(§13) A spacer gel was formulated according to the following table, and sample loading was conducted. After completion, electrophoresis should be conducted as soon as possible, where concentration was conducted at 80 v for 30 min, and then electrophoresis was conducted at 120 v until the front edge ran to the lower edge of the separation gel, and the electrophoresis was stopped.
3. […]

[7] = test system: p62; experiment: as above; details: high dose group
Method: as §8, §9, §10, §11, §12, §13
3. […]

[8] = test system: high-fat HepG2 cells; experiment: Triglyceride (TG) content of the cells, TG kit; details: for level of TG in a high fat cell: FIGS. 4B, 5B; for level of TG, compared with control group and low dose group: medium and high doses
Method: 2. The culture, model establishment and experimental steps of the cells were operated according to the above steps. The anthocyanin compound mother liquor was diluted to 0, 0.1, 1, 10, 50, and 100 μM to treat the high-fat HepG2 cells, respectively.
3. The culture solution was pipetted off, gently washed with PBS for 3 times, and added with trypsin to digest the cells for 1 min The cell suspension was pipetted into a 1.5 mL sterile EP tube, centrifuged at 1000 rpm for 10 minutes, the supernatant was discarded, the pellet was added with an appropriate amount of PBS, ultrasonically crushed under the condition of an ice-water bath, and the prepared homogenate was not centrifuged and was ready for determination.
The intracellular triglyceride content was determined according to the operating instructions of a triglyceride (TG) kit. The protein content in the cells was determined by a BCA protein concentration kit, and the triglyceride content in the cells was calibrated with the protein content.

Compound	mRNA level of Apg7 [1]	mRNA expression of Apg7 [1]	mRNA expression level of Bcl-1 [2]	mRNA level of APGSL [3]	mRNA level of p62 [4]	mRNA expression of p62 [4]	mRNA expression level of Fas [5]	protein expression of Bcl-1 [6]	protein expression of p62 [7]	level of TG in a high fat cell [8]	level of TG, compared with control group and low dose group [8]
COc1cc(-c2[o+]c3cc(O)cc(O)c3cc2O[C@@H]2O[C@H](CO)[C@@H](O)[C@H](O)[C@H]2O)cc(OC)c1O [malvidin-3-O-β-D glucoside]	up-regulate	reduced	significantly decrease	up-regulate	up-regulate	reduced	significantly decrease	inhibition trend	inhibition trend	reduce	very significant reduction
COc1cc(-c2[o+]c3cc(O)cc(O)c3cc2O[C@@H]2O[C@H](CO)[C@@H](O)[C@H](O)[C@H]2O)cc(O)c1O [petunidin-3-O-β-D glucoside]	up-regulate	reduced	significantly decrease	up-regulate	up-regulate	reduced	significantly decrease	inhibition trend	inhibition trend	reduce	very significant reduction
